We go through 26 compounds from ChEMBL document CHEMBL3734700, “Design, synthesis and biological activity of 4-[(benzimidazol-1-yl)methyl]biphenyl-2-sulphonamides as dual angiotensin II and endothelin A receptor antagonists” (Medchemcomm, 2015).

Test [1] concerns the target T1, Type-1 angiotensin II receptor (Homo sapiens, UniProt P30556).
T1 sequence (P30556 whole entry): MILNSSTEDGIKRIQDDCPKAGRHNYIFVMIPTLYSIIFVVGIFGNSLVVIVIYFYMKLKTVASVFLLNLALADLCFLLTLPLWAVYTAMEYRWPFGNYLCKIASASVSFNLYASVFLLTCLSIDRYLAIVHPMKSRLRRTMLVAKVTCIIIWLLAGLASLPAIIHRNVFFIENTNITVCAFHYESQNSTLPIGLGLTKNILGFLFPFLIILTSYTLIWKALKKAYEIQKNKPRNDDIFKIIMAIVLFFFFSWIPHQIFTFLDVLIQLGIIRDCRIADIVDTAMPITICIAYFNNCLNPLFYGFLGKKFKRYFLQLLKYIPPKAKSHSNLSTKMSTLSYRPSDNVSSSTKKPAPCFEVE
In words: Displacement of 125I-labeled Sar1-Ile8-angiotensin II from human AT1 receptor incubated for 2 hrs by gamma counting analysis.

Another test deals with T2, Endothelin-1 receptor (Homo sapiens, UniProt P25101).
T2 sequence (P25101 whole entry): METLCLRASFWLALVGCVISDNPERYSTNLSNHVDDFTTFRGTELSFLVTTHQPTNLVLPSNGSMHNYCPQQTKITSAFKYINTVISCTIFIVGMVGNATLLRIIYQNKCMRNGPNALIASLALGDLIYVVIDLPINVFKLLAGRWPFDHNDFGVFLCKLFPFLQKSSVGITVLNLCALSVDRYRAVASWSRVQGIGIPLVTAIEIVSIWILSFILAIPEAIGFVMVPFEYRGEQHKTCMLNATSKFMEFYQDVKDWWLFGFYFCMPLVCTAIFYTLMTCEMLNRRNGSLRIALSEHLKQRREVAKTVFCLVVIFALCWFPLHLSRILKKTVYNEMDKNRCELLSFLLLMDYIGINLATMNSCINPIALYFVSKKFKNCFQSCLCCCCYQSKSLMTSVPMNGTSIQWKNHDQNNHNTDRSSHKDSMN
In words: Displacement of 125I-labeled endothelin 1 from human ETA receptor expressed in CHO-K1 cells incubated for 4 hrs by gamma counting analysis. It counts as cell-based. For orientation: Loss of bound radioactivity is the signal in a displacement assay; it reports binding, not function.

The test system of the next test is Rattus norvegicus. In words: Antihypertensive activity in spontaneously hypertensive rat assessed as reduction in blood pressure at 20 mg/kg, po by tail plethysmographic analysis. It counts as functional, organism-based.

The source made the active and inactive calls. No cut-off for these calls is given here.

In general, IC50 refers to the concentration that gives 50% inhibition. For the compound `CCCc1nc2c(C)cc(C(=O)NCc3cccc(OC)c3)cc2n1Cc1ccc(-c2ccccc2S(=O)(=O)Nc2onc(C)c2C)cc1`, the IC50 is 50 nM in test [1] and 898 nM at Endothelin-1 receptor.
The like results for `CCCc1nc2c(C)cc(C(=O)NCCc3ccccc3F)cc2n1Cc1ccc(-c2ccccc2S(=O)(=O)Nc2onc(C)c2C)cc1` were, in that order, 160 nM and 262 nM.
Consider `CCCCC1=NC2(CCCC2)C(=O)N1Cc1ccc(-c2ccccc2-c2nnn[nH]2)cc1`, for which the result in the test with Rattus norvegicus was Active.
For the compound `CCCc1nc2c(C)cc(C(=O)NCCc3ccc(OC)c(OC)c3)cc2n1Cc1ccc(-c2ccccc2S(=O)(=O)Nc2onc(C)c2C)cc1`, the IC50 in test [1] was 92 nM; on Endothelin-1 receptor, 55000 nM.
Taken in the same sequence, the figures for `CCCc1nc2c(C)cc(C(=O)NCCc3cccc(OC)c3)cc2n1Cc1ccc(-c2ccccc2S(=O)(=O)Nc2onc(C)c2C)cc1` were 42 nM and 24000 nM.
On to `CCCc1nc2c(C)cc(C(=O)NC(C)(C)C)cc2n1Cc1ccc(-c2ccccc2S(=O)(=O)Nc2onc(C)c2C)cc1`, for which the IC50 in test [1] came to 385 nM; on Endothelin-1 receptor, 140000 nM.
Consider `CCCc1nc2c(C)cc(C(=O)NCc3ccc(OC)c(OC)c3)cc2n1Cc1ccc(-c2ccccc2S(=O)(=O)Nc2onc(C)c2C)cc1`, for which the IC50 came out at 56 nM in test [1] and 28000 nM at Endothelin-1 receptor.
The like results for `CCCc1nc2c(C)cc(C(=O)Nc3ccccc3)cc2n1Cc1ccc(-c2ccccc2S(=O)(=O)Nc2onc(C)c2C)cc1` were, in that order, 201 nM and 27000 nM.
Taken in the same sequence, the figures for `CCCc1nc2c(C)cc(C(=O)NCc3ccc(OC)cc3)cc2n1Cc1ccc(-c2ccccc2S(=O)(=O)Nc2onc(C)c2C)cc1` were 81 nM and 388 nM.
Taken in the same sequence, the figures for `CCCc1nc2c(C)cc(C(=O)NC(C)C)cc2n1Cc1ccc(-c2ccccc2S(=O)(=O)Nc2onc(C)c2C)cc1` were 341 nM and 277 nM.
Regarding `CCCc1nc2c(C)cc(C(=O)NCc3ccccc3OC)cc2n1Cc1ccc(-c2ccccc2S(=O)(=O)Nc2onc(C)c2C)cc1`, the IC50 in test [1] was determined as 217 nM; on Endothelin-1 receptor, 310 nM.
The like results for `CCCNC(=O)c1cc(C)c2nc(CCC)n(Cc3ccc(-c4ccccc4S(=O)(=O)Nc4onc(C)c4C)cc3)c2c1` were, in that order, 373 nM and 35000 nM.
As for `CCCc1nc2c(C)cc(C(=O)NCc3ccccc3)cc2n1Cc1ccc(-c2ccccc2S(=O)(=O)Nc2onc(C)c2C)cc1`, the IC50 in test [1] was 28 nM; at Endothelin-1 receptor, 10 nM. In the test on Rattus norvegicus, the result was Active.
In the case of `CCCc1cc(Cn2c(CC)nc3c(C)cc(C)nc32)ccc1OC(C(=O)NS(=O)(=O)c1ccc(C(C)C)cc1)c1ccc2c(c1)OCO2` (configuration not stated), the figures for the concentration for half-maximal inhibition (IC50) (in test [1]; at Endothelin-1 receptor) were 13 nM and 24 nM, respectively.
As for `CCCc1nc2c(C)cc(C(=O)NCCN3CCOCC3)cc2n1Cc1ccc(-c2ccccc2S(=O)(=O)Nc2onc(C)c2C)cc1`, the IC50 in test [1] amounted to 31 nM; at Endothelin-1 receptor, 1400 nM.
`CCCc1nc2c(n1Cc1ccc(-c3ccccc3S(=O)(=O)Nc3onc(C)c3C)c(C#N)c1)C(=O)CCCC2`: the values for the IC50 (in test [1]; on Endothelin-1 receptor) were 16 nM and 15 nM, respectively.
Taken in the same sequence, the figures for `CCCc1nc2c(C)cc(C(=O)NCCc3ccccc3)cc2n1Cc1ccc(-c2ccccc2S(=O)(=O)Nc2onc(C)c2C)cc1` were 8 nM and 956 nM.
Regarding `CCCc1nc2c(C)cc(C(=O)NCCc3cc(OC)ccc3OC)cc2n1Cc1ccc(-c2ccccc2S(=O)(=O)Nc2onc(C)c2C)cc1`, the IC50 in test [1] was found to be 37 nM; on Endothelin-1 receptor it was 3000 nM.
The like results for `CCCc1nc2c(C)cc(C(=O)NCCN3CCCCC3)cc2n1Cc1ccc(-c2ccccc2S(=O)(=O)Nc2onc(C)c2C)cc1` were, in that order, 94 nM and 5800 nM.
For `CCCc1nc2c(C)cc(C(=O)NCCc3ccc(OC)cc3)cc2n1Cc1ccc(-c2ccccc2S(=O)(=O)Nc2onc(C)c2C)cc1`, the values for the IC50 (in test [1]; at Endothelin-1 receptor) were 76 nM and 200000 nM, respectively.
The like results for `CCCCNC(=O)c1cc(C)c2nc(CCC)n(Cc3ccc(-c4ccccc4S(=O)(=O)Nc4onc(C)c4C)cc3)c2c1` were, in that order, 465 nM and 314 nM.
For the compound `CCCc1nc2c(C)cc(C(=O)Nc3ccccc3OC)cc2n1Cc1ccc(-c2ccccc2S(=O)(=O)Nc2onc(C)c2C)cc1`, the IC50 is 419 nM in test [1] and 137 nM at Endothelin-1 receptor.
The like results for `CCCc1nc2c(C)cc(C(=O)NCCN3CCN(C)CC3)cc2n1Cc1ccc(-c2ccccc2S(=O)(=O)Nc2onc(C)c2C)cc1` were, in that order, 47 nM and 1800 nM.
For `CCCc1nc2c(C)cc(C(=O)NCCN3CCCC3)cc2n1Cc1ccc(-c2ccccc2S(=O)(=O)Nc2onc(C)c2C)cc1`, the IC50 in test [1] was found to be 95 nM; on Endothelin-1 receptor, 5500 nM.
As for `CCCc1nc2c(C)cc(C(=O)NCCc3ccc(F)cc3)cc2n1Cc1ccc(-c2ccccc2S(=O)(=O)Nc2onc(C)c2C)cc1`, the IC50 came to 152 nM in test [1] and 56000 nM at Endothelin-1 receptor.
The like results for `CCCCc1nn(-c2ccccc2Cl)c(=O)n1Cc1ccc(-c2ccccc2S(=O)(=O)Nc2onc(C)c2C)cc1` were, in that order, 7 nM and 11 nM.
